Molecules are shown by their SMILES.

For the experiment, the system named is L. infantum MHOM/MA/67/ITMAP-263 promastigotes. As to the kind of experiment: Resazurin-based assay against L. infantum promastigotes. Type of experiment: cell-based, Leishmania infantum. To be noted: Leishmania infantum, 72 h, dose-response. On the procedure:
The antiparasitic activity of compounds 2c–g, 3a, 5a and 7 was evaluated at a single concentration of 20 μM, against Trypanosoma brucei (T. brucei) and Leishmania infantum (L. infantum) promastigotes. The results are shown in Table 9 together with the cytotoxicity data (CC50) in THP-1–derived macrophages cells.
L. infantum MHOM/MA/67/ITMAP-263 promastigotes forms were grown at 27 °C, in complete RPMI-1640 medium supplemented with 10% heat-inactivated Fetal Bovine Serum (FBS), 2 mM L-glutamine, 100 UI/mL penicillin/streptomycin, 20 mM HEPES. Parasites maintenance was performed in T25 non-ventilated flasks by subpassage at a concentration of 1 × 10^6/mL every 5 days on T25 non-ventilated flasks.
The compounds’ efficacy against L. infantum promastigotes was evaluated using a resazurin-based assay. Parasites were added to 100 µL of serial dilutions of compounds in supplemented complete medium at a cell density of 5 × 10^5/mL. As a quality control, a dose–response curve to the antileishmanial drug miltefosine was included in all the assays. The final volume of the assay was 200 µL/well. Each condition was carried out in duplicate. Following 72 h of incubation at the specific conditions for L. infantum, 20 µL of a 0.5 mM resazurin solution was added, and the plates were incubated for a further 4 h under the same conditions. The methodology to obtain the results was the same described in Section 3.2.2. for T. brucei.

`N=C(N)c1ccc(OCCCCCOc2ccc(C(=N)N)cc2)cc1` [Pentamidine, pentamidine, reference compound]: 2940 nM corresponded to half-maximal inhibition (IC50).

These data come from publication PMC12073635, “Synthesis of Tricyclic and Tetracyclic Lactone Derivatives of Thieno[2,3-b]pyrazine or Thieno[2,3-b]quinoline: Preliminary Antitumor and Antiparasitic Activity Evaluation” (Molecules, 2025).
